Results from US12661410B2, “Compounds for targeted degradation of RET” (C4 Therapeutics, Inc., priority 2020, dated 2026).
Positions count from the first letter of the chain named. Where two headings read alike, the source gives them in different places.

What was measured:
[1] = biological target: T1, RET(KD: 658-1114 G810R) (Homo sapiens, UniProt P07949, G810R); assay: HiBiT-Degradation, RET G810R degradation assay (Nano-Glo HiBiT Lytic), 293T.165 cells; format: cell-based; conditions: for Emax / DC50: 6.0 hours
T1 construct: 658-1114; expressed in transfected cells; host or cells: 293T.165 (293T cells, generated in-house)
T1 sequence (P07949 658-1114 G810R): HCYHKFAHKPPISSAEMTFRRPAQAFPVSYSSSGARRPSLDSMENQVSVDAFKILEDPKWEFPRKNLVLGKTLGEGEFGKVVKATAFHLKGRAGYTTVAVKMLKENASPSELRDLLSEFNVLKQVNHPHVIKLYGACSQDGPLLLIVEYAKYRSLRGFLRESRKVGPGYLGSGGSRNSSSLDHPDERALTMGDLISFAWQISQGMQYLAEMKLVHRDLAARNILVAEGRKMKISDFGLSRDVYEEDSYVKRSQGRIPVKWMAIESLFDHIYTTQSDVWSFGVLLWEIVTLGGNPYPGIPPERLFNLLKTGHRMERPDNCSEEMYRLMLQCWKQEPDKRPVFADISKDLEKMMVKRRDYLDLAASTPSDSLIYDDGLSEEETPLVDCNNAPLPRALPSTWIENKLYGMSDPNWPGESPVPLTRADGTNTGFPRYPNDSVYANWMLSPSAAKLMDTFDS
Method in brief: (§1)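 Degradation after 6 h compound exposure (top 10 μM, 11 half-log points, duplicates) measured by Nano-Glo HiBiT lytic luminescence. Cells: 293T.144 carrying wild-type and 293T.165 carrying G810R HiBiT-RET kinase domain; curves yield DC50 and Emax.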

[2] = biological target: T2, RET (658-1114) (Homo sapiens, UniProt P07949); assay: HiBiT-Degradation, RET wild-type degradation assay (Nano-Glo HiBiT Lytic), 293T.144 cells; format: cell-based; conditions: for DC50 / Emax: 6.0 hours
T2 construct: 658-1114; expressed in transfected cells; host or cells: 293T.144 (293T cells, generated in-house)
T2 sequence (P07949 658-1114): T1 sequence (P07949 658-1114 G810R) with R153G
Method in brief: as §1

[3] = % remaining protein, read-out: 293T.165 RET(KD: 658-1114 G810R) 6.0 hours (Emax)
[4] = half-maximal degradation concentration, read-out: 293T.165 RET(KD: 658-1114 G810R) 6.0 hours (DC50)
[5] = % remaining protein, read-out: 293T.144 RET (658-1114) 6.0 hours (Emax)
[6] = half-maximal degradation concentration, read-out: 293T.144 RET (658-1114) 6.0 hours (DC50)

| SMILES | Emax [1, 3] [%] | DC50 [1, 4] [nM] | HiBiT-Degradation 293T.165 RET(KD: 658-1114 G810R) 6.0 hours (IP) [nM] ([1]; RET G810R) | DC50 ([1]; RET G810R, read-out: HiBiT-Degradation 293T.165 RET(KD: 658-1114 G810R) 6.0 hours (DC50)) [nM] | Emax ([1]; RET G810R, read-out: HiBiT-Degradation 293T.165 RET(KD: 658-1114 G810R) 6.0 hours (Emax)) [%] | HiBiT-Degradation 293T.144 RET (658-1114) 6.0 hours (IP) [nM] ([2]; RET wild-type) | DC50 ([2]; RET wild-type, read-out: HiBiT-Degradation 293T.144 RET (658-1114) 6.0 hours (DC50)) [nM] | Emax ([2]; RET wild-type, read-out: HiBiT-Degradation 293T.144 RET (658-1114) 6.0 hours (Emax)) [%] | 293T.165 RET(KD: 658-1114 G810R) 6.0 hours (IP) [nM] [1] | 293T.144 RET (658-1114) 6.0 hours (IP) [nM] [2] | Emax [2, 5] [%] | DC50 [2, 6] [nM] |
| --- | --- | --- | --- | --- | --- | --- | --- | --- | --- | --- | --- | --- |
| CCC1(C(=O)NC(C)C)CCN(c2ccc(-c3nc(-c4cnn(C5CCN(C(=O)CC6(O)CCN(c7ccc(NC8CCC(=O)NC8=O)c(F)c7)CC6)CC5)c4)cn4ncc(C#N)c34)cn2)CC1 (centres unmarked) [Compound 69, 1-[5-[3-cyano-6-[1-[1-[2-[1-[4-[(2,6-dioxo-3-piperidyl)amino]-3-fluoro-phenyl]-4-hydroxy-4-piperidyl]acetyl]-4-piperidyl]pyrazol-4-yl]pyrazolo[1,5-a]pyrazin-4-yl]-2-pyridyl]-4-ethyl-N-isopropyl-piperidine-4-carboxamide] | < 50 | < 100 | ++++ (< 50 nM = ++++) | < 100 | < 50 | ++++ (< 50 nM = ++++) | < 50 | < 30 | – | – | – | – |
| Cn1nc(N2CCC(=O)NC2=O)c2cc(F)c(N3CCN([C@H]4CC[C@@H](n5cc(-c6cn7ncc(C#N)c7c(-c7ccc(N8C[C@H]9COC[C@@H](C8)N9Cc8ccc(=O)[nH]c8)nc7)n6)cn5)CC4)CC3)cc21 (single isomer, unassigned) [Compound 153] | < 30 | < 100 | – | – | – | – | – | – | ++++ (<50 nM = ++++) | ++++ (<50 nM = ++++) | < 30 | < 50 |
| CC(C)Oc1ccc(CN2[C@@H]3COC[C@H]2CN(c2ccc(-c4nc(-c5cnn([C@H]6CC[C@H](N7CCN(c8c(F)cc(NC9CCC(=O)NC9=O)cc8F)CC7)CC6)c5)cn5ncc(C#N)c45)cn2)C3)cn1 (mixture of isomers) [Compound 213, 6-[1-[4-[4-[4-[(2,6-dioxo-3-piperidyl)amino]-2,6-difluoro-phenyl]piperazin-1-yl]cyclohexyl]pyrazol-4-yl]-4-[6-[rac-(1R,5S)-9-[(6-isopropoxy-3-pyridyl)methyl]-3-oxa-7,9-diazabicyclo[3.3.1]nonan-7-yl]-3-pyridyl]pyrazolo[1,5-a]pyrazine-3-carbonitrile] | < 30 | < 100 | – | – | – | – | – | – | +++ (<100 nM = +++) | ++++ (<50 nM = ++++) | < 30 | < 50 |
| CCC1(C(=O)NC2CCC2)CCN(c2ccc(-c3nc(-c4cnn([C@H]5CC[C@H](CN6CCN(c7ccc(N[C@@H]8CCC(=O)NC8=O)cc7F)CC6)CC5)c4)cn4ncc(C#N)c34)cn2)CC1 [Compound 190, 1-[5-[3-cyano-6-[1-[4-[[4-[4-[[(3R)-2,6-dioxo-3-piperidyl]amino]-2-fluoro-phenyl]piperazin-1-yl]methyl]cyclohexyl]pyrazol-4-yl]pyrazolo[1,5-a]pyrazin-4-yl]-2-pyridyl]-N-cyclobutyl-4-ethyl-piperidine-4-carboxamide] | < 30 | < 100 | – | – | – | – | – | – | ++++ (<50 nM = ++++) | ++++ (<50 nM = ++++) | < 30 | < 50 |
| CCC1(C(=O)NC2CCC2)CCN(c2ccc(-c3nc(-c4cnn([C@H]5CC[C@H](N6CCC(c7ccc(N[C@H]8CCC(=O)NC8=O)cc7)CC6)CC5)c4)cn4ncc(C#N)c34)cn2)CC1 (single isomer, unassigned) [Compound 127] | < 30 | < 50 | – | – | – | – | – | – | ++++ (<50 nM = ++++) | ++++ (<50 nM = ++++) | < 30 | < 50 |
